Source: ChEMBL document CHEMBL1201862, “PubChem BioAssay data set” (2004)
Active and inactive are the calls of the source.

What was measured:
[1] = viability loss in CEM21 cells – cell-based, CellTiter-Glo luminescence, cherry-picked, cytotoxicity control for viral fusion inhibitor project, dose response (AID 652042); type: functional;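 also: potency for signal decrease meaning cytotoxicity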
[2] = blockers of HIV-1 ZM109 envelope-driven cell-cell fusion – HeLa effector, CEM target cells, luciferase, cherry-pick, dose response (AID 652058); type: functional, cell-based;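 also: luciferase signal from HIV-1 Env mediated cell-cell fusion of effector and target cells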
Beta-galactosidase = Beta-galactosidase (Escherichia coli, UniProt Q8VNN2); assay: Dose response counterscreen for EBI2 assay utilizing the enzyme, b-galactosidase.; type: functional
Major prion protein = Major prion protein (Homo sapiens, UniProt P04156); type: functional, cell-based
cells [3] = assay: cells
[4] = biological target: Peroxisome proliferator-activated receptor gamma/Nuclear receptor coactivator 1 (Homo sapiens, UniProt P37231); assay: TR-FRET dose response biochemical High Throughput Screening assay for agonists of the steroid receptor coactivator 1 (SRC-1) recruitment by the peroxisome proliferator-activated receptor gamma (PPAR gamma): non-selective agonists. [Related pubchem assays (depositor defined):AID1300, AID1808, AID504735, AID631]; type: protein assay
[5] = biological target: Peroxisome proliferator-activated receptor gamma/Nuclear receptor coactivator 3 (Homo sapiens, UniProt P37231); assay: TR-FRET dose response biochemical High Throughput Screening assay for agonists of the steroid receptor coactivator 3 (SRC-3) recruitment by the peroxisome proliferator-activated receptor gamma (PPAR gamma): non-selective agonists. [Related pubchem assays: 1301 (Confirmation screen.), 1048 (Primary screen.)]; type: functional
[6] = biological target: Peroxisome proliferator-activated receptor gamma/Nuclear receptor coactivator 2 (Homo sapiens, UniProt P37231); assay: TR-FRET dose response biochemical High Throughput Screening assay for agonists of the steroid receptor coactivator 2 (SRC-2) recruitment by the peroxisome proliferator-activated receptor gamma (PPAR gamma): non-selective agonists. [Related pubchem assays: 1297, 1032 ]; type: functional
[7] = Luminescence-based cell-based high throughput dose response assay to identify activators of the DAF-12 from the parasite S. stercoralis (ssDAF-12).; type: functional
cells [8] = type: functional, cell-based
[9] = biological target: T1, Trace amine-associated receptor 1 (Homo sapiens, UniProt Q96RJ0); assay: Counterscreen for agonists of the human trace amine associated receptor 1 (hTAAR1): Fluorescence-based cell-based high throughput dose response assay to identify hTAAR1 agonist that also desensitize TAAR1 receptor response.; type: functional
T1 sequence (Q96RJ0 whole entry): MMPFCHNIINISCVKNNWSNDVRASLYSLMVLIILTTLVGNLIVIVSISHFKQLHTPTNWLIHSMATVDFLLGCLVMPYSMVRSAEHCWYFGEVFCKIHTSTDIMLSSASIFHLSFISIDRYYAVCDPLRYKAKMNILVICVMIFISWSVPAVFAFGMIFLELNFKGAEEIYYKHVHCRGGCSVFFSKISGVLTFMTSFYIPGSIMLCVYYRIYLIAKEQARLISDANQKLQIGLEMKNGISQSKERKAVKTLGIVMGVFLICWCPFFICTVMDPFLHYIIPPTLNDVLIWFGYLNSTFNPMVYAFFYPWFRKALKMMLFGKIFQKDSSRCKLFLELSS

[10] = biological target: T1, Trace amine-associated receptor 1; assay: Fluorescence-based cell-based high throughput dose response assay to identify agonists of the human trace amine associated receptor 1 (TAAR1).; type: functional
cells [11] = type: functional, cell-based; remark: listed apart in the source
HeLa = assay: viability loss in HeLa cells – cell-based, ATP luminescence, cherry-pick samples, cytotoxicity control, dose response (AID 687004); type: functional; settings: Homo sapiens
Mu-type opioid receptor = Mu-type opioid receptor (Homo sapiens, UniProt P35372); type: functional, cell-based;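 also: U2OS cells with beta-arrestin recruitment to OPRM1 by beta-gal complementation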
[12] = biological target: 5-hydroxytryptamine receptor 2A (Mus musculus, UniProt P35363); type: functional, cell-based;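 also: CHO-K1 cells with tagged receptor and beta-arrestin; agonist potency measured as compound-induced activation of the receptor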
[13] = biological target: Matrix metalloproteinase-14 (Homo sapiens, UniProt P50281); assay: Dose Response confirmation of uHTS hits for a small molecule inhibitors of MT1-MMP activation in a fluorescence assay set 1.; type: functional
[14] = toxicity toward HepG2 liver cells – cell-based, plate reader, cherry-pick, antagonist series, cytotoxicity control, dose response (AID 743416); type: functional
[15] = viability loss in HEK293 cells – cell-based, plate reader, cherry-picked samples, cytotoxicity control, dose response (AID 743446); type: functional
[16] = blockers of bursicon-stimulated LGR2 cAMP reporter – cell-based, HEK293, CRE-luciferase reporter, cherry pick, set 2, dose response (AID 743343); type: functional;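 also: transfected cells were stimulated with diluted bursicon conditioned medium after compound addition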
[17] = A549 cell cytotoxicity, dose response, cytotoxicity control, plate reader, cherry-pick, antagonist series (AID 743412); type: functional, cell-based
[18] = blockade of melanocortin 4 receptor signaling – cell-based, plate reader, cherry pick, counter-screen for LGR2 antagonist project, dose response (AID 743444); type: functional;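 also: transfected HEK 293 cells stimulated with alpha-MSH peptide; potency of inhibitors of the alpha-MSH evoked signal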
HEK293 [19] = assay: NOD2 signaling inhibitors in MDP-stimulated cells, cell-based, uHTS, luminescence (AID 2001); type: functional; settings: Homo sapiens
HEK293 [20] = assay: cells; type: functional, cell-based; settings: Homo sapiens
Galanin receptor type 3 = Galanin receptor type 3 (Homo sapiens, UniProt O60755); assay: Fluorescence-based cell-based primary high throughput dose response assay to identify antagonists of the Galanin Receptor 3 (GalR3).; type: functional
cells [21] = type: functional, cell-based; settings: HEK-CNG
HEK293 [22] = assay: inhibition of NOD1-driven NF-kB reporter – cell-based, luminescence, uHTS, primary screen (AID 1578); type: functional; settings: Homo sapiens
HEK293 [23] = assay: cells; type: functional, cell-based; settings: Homo sapiens; remark: listed apart in the source
[24] = biological target: T2, Small ubiquitin-related modifier 1 (Homo sapiens, UniProt P63165); assay: SUMO1 protein interaction blockers, potency – biochemical, fluorescence polarization, uHTS hits, dose response (AID 624382); type: functional; settings: read-out: IC50_Mean
[25] = biological target: T2, Small ubiquitin-related modifier 1; assay: SUMO1 protein-protein binding blockers, potency – biochemical, FRET, dose response (AID 624383); type: functional; settings: read-out: IC50_Mean
Paired box protein Pax-8 = Paired box protein Pax-8 (Homo sapiens, UniProt Q06710); assay: PAX8 transcriptional activity inhibition in RMG-I – RMG-I cells, luciferase, cherry-pick, dose response (AID 687027); type: functional, cell-based;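 also: luciferase reporter driven by Pax8 target thyroperoxidase promoter measured by SteadyGlo luminescence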
[26] = general cell-killing toxicity readout – plate reader, dry powder samples, cytotoxicity control for PAX8 inhibitor project, dose response (AID 743021); type: functional, cell-based
[27] = IGROV1 cell killing – plate reader, dry powder samples, PAX8 inhibitor project, dose response (AID 743043); type: functional, cell-based; settings: IGROV-1
[28] = reduced cellular PGC1a acetyl-lysine signal – cell-based, cherry-picked samples, dose response (AID 720514); type: functional;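 also: potency may reflect raised or lowered acetylation signal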
[29] = OVCAR8 cell viability loss – plate reader, dry powder samples, PAX8 project, dose response (AID 743197); type: functional, cell-based; settings: OVCAR-8
[30] = P. falciparum Dd2 growth inhibitors, dose response, SYBR Green, cherry-picked samples (AID 1159567); type: functional, cell-based
[31] = toxicity to human hepatoma HepG2 cells – cell-based, cherry-picked samples, cytotoxicity control, dose response (AID 1159577); type: functional
[32] = NIH-3T3 fibroblast cytotoxicity, dose response, cytotoxicity control, cell-based, fluorescence, Alamar Blue, secondary assay (AID 2327); type: functional;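 also: NIH-3T3 mouse fibroblasts cultured with fluconazole at 8 µg/mL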
[33] = fluconazole-exposed Candida albicans growth modulators – fluorescence, retest, confirmation (AID 2467); type: functional, cell-based
[34] = biological target: T3, Methionyl-tRNA synthetase, putative (Trypanosoma brucei brucei, UniProt Q38C91); type: functional, Trypanosoma brucei brucei strain 927/4 GUTat10.1
T3 sequence (Q38C91 whole entry): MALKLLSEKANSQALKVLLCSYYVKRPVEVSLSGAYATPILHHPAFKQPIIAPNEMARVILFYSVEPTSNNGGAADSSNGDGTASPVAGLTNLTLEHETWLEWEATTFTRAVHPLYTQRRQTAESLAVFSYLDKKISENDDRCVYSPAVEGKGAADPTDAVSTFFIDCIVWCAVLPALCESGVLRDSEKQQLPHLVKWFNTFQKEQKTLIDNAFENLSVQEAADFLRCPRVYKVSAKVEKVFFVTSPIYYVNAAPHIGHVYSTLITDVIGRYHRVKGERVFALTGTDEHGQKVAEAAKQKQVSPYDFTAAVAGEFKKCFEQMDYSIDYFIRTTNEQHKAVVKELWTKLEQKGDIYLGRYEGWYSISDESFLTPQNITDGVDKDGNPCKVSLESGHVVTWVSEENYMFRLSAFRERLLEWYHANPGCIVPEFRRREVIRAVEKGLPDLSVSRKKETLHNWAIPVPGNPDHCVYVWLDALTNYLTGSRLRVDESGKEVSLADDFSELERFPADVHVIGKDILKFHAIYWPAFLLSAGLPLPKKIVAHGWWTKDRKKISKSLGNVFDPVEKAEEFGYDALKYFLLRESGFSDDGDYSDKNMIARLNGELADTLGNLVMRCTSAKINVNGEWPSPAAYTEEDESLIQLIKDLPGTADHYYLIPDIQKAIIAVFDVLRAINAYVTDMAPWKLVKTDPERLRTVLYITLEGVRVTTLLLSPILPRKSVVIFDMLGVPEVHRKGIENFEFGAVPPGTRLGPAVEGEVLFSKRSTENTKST

[35] = biological target: T3, Methionyl-tRNA synthetase, putative; type: functional, Trypanosoma brucei brucei strain 927/4 GUTat10.1; remark: listed apart in the source
[36] = Counterscreen for inhibitors of Trypanosoma brucei methionyl tRNA synthetase (MetRS): Luminescence-based cell-based high throughput dose response assay to identify compounds that are cytotoxic to Jurkat human T lymphocyte cells.; type: functional

SMILES: CC1(C)N=C(N)N=C(N)N1CCCCc1ccccc1
- AC50 [1]: 1.63 µM (active)
- AC50 [2]: 1.34 µM (active)

SMILES: CCOC(=O)N1CCN(C(=O)COc2ccc(Br)cc2)CC1
- IC50 (Beta-galactosidase): > 80 µM (inactive)

SMILES: Cc1ccc(Sc2c(O)c3ccccc3n(C)c2=O)cc1
- IC50 (Major prion protein): 7.12 µM (active)
- IC50 (cells [3]): > 138 µM (inactive)
- EC50 [4]: > 79.4 µM (inactive)
- EC50 [5]: > 79.4 µM (not active)
- EC50 [6]: > 79.4 µM (not active)

SMILES: COc1ccc(-c2cn3ccccc3n2)cc1OC
- IC50 [7]: > 67.5 µM (inactive)

SMILES: Cc1ccc(/C=C/C(=O)N2CCCN(C(=O)/C=C/c3ccc(C)cc3)CC2)cc1
- IC50 (Beta-galactosidase): > 80 µM (inactive)

SMILES: Cc1cc(C)c(C#N)c(SCC(=O)c2cc(C)n(CCc3ccccc3)c2C)n1
- EC50 (cells [8]): > 29.9 µM (inactive)
- IC50 [9]: 4.68 µM (active)
- EC50 [10]: 1.15 µM (active)
- IC50 (cells [11]): > 29.9 µM (inactive)

SMILES: COc1ccc(N(CC(=O)NCCSCc2ccc(C)cc2)S(=O)(=O)c2ccccc2)cc1
- AC50 (HeLa): > 52 µM (inactive)

SMILES: CC1CC(C)CN(CCOc2cccc(Cl)c2Cl)C1 (stereo not drawn)
- EC50 (Mu-type opioid receptor): 92.5 µM (inactive)
- EC50 [12]: 0.281 µM (active)

SMILES: CN1C2=CC=CC=CC2=[N+](C)C12C=CC(=[N+]([O-])[O-])C=C2[N+](=O)[O-] (stereo not drawn)
- IC50 [13]: 54.2 µM (inactive)

SMILES: CCC(Sc1ccc2nnc(-c3ccc(F)cc3)n2n1)C(=O)O (stereo not drawn)
- IC50 (Major prion protein): 13 µM (inactive)
- IC50 (cells [3]): > 138 µM (inactive)

SMILES: COc1cccc2c1C(=O)O/C2=C/c1ccc2c(c1)OCO2
- AC50 [14]: > 52 µM (inactive)
- AC50 [15]: > 52 µM (inactive)
- AC50 [16]: 2.1 µM (active)
- AC50 [17]: > 52 µM (inactive)
- AC50 [18]: 2.69 µM (active)

SMILES: Cc1oc(-c2ccc(Cl)cc2)nc1CSCC(=O)NC1CCN(Cc2ccccc2)CC1
- IC50 (HEK293 [19]): 3.08 µM (active)
- IC50 (HEK293 [20]): 1.68 µM (active)
- IC50 (Galanin receptor type 3): 1.29 µM (active)
- EC50 (cells [21]): > 29.9 µM (inactive)
- EC50 (HEK293 [22]): 2.62 µM (active)
- IC50 (HEK293 [23]): 9.78 µM (active)

SMILES: Cc1ccc(CCNc2ncnc(Cl)c2N)cc1
- IC50 (Galanin receptor type 3): 0.626 µM (active)
- EC50 (cells [21]): > 29.9 µM (inactive)

SMILES: Cc1ccc(NC(=O)CN2CCN(c3ccccn3)CC2)cc1S(=O)(=O)N(C)C
- EC50 (Mu-type opioid receptor): 92.5 µM (inactive)
- EC50 [12]: 0.685 µM (active)

SMILES: O=C(NCc1cc(C(F)(F)F)ccc1Cl)c1cccc2c1C(=O)c1ccc(N3CCC(N4CCCCC4)CC3)cc1S2(=O)=O
- IC50 [24]: > 66.6 µM (inactive)
- IC50 [25]: 11.1 µM (active)
- AC50 (Paired box protein Pax-8): 11.7 µM (active)
- AC50 [26]: 19.7 µM (active)

SMILES: COc1ccc2c3c(n(C)c2c1)[C@H](CO)NCC31CCN(Cc2cc(-c3ccccc3)on2)CC1
- AC50 [27]: 25.1 µM (active)
- AC50 [28]: 12.9 µM (active)
- AC50 [29]: 24.1 µM (active)
- AC50 [30]: 1.64 µM (active)
- AC50 (Paired box protein Pax-8): 7.96 µM (active)
- AC50 [26]: 43 µM (active)
- AC50 [31]: 7.77 µM (active)

SMILES: COc1cccc(-c2ccc3c(c2)[C@H]2[C@H](CCN2C(=O)Cc2ccncc2)[C@H](CO)N3C)c1
- AC50 (HeLa): > 52 µM (inactive)

SMILES: Cc1ccc(SCCC(=O)N/N=C/c2ccccc2O)cc1
- EC50 [32]: > 160 µM (inactive)
- EC50 [33]: 4.74 µM (active)
- IC50 [34]: 4.49 µM (active)
- IC50 [35]: 4.39 µM (active)
- IC50 [36]: 16.1 µM (inactive)

SMILES: CN1C(=O)/C(=C2/C=Cc3ccccc3N2CCCS(=O)(=O)O)SC1=S
- IC50 [13]: > 80 µM (inactive)
